Columns and labels:
Assay type in all cases: cell-based, Cyamopsis tetragonoloba
[1] = test system: cotyledonary node explants of guar variety Kinman; assay: Multiple shoot regeneration from cotyledonary node explants on B5 medium with growth regulators (Kinman); details: percentage of explants that formed shoots; B5 shoot initiation medium, hormone concentrations in μM
Experimental: (§1) Explant preparation. Guar seeds of two American cultivars (Lewis and Kinman; e.g. (Undersander et al., 1991) were surface sterilized in concentrated sulphuric acid for 10 min followed by four washes in ice cold sterile distilled water. Subsequently the seeds were treated with 10% commercial bleach (containing 6.0% free chlorine) for 5 min with a few drops of Tween 20 and washed thoroughly three to four times in sterile distilled water. The sterile seeds were sown in magenta boxes on MS medium (Murashige and Skoog, 1962) with 3% sucrose, 0.8% agar, pH 5.8, and germination was continued for 7-9 days under a 16 h/8 h day/night regime at 25° C. Three-four mm long cotyledonary node explants comprising the meristematic zone were excised from the seedlings and used for shoot regeneration and transformation.
(§2) Shoot regeneration. Shoot regeneration was performed in two different phases; shoot initiation and shoot elongation. For shoot initiation, […] cotyledonary node explants were cultured with the adaxial surface touching the medium in Petri plates (FIG. 1A). The explants were cultured on Gamborg's B5 medium (Gamborg et al., 1968), supplemented with 3% (w/v) sucrose, 0.8% Phyto agar (Caisson Laboratories Inc.), pH 5.8 (shoot initiation medium, SIM) with different combinations of growth regulators (Table 1). […]

[2] = test system: cotyledonary node explants of guar variety Lewis; assay: Multiple shoot regeneration from cotyledonary node explants on B5 medium with growth regulators (Lewis); details: percentage of explants that formed shoots; B5 shoot initiation medium, hormone concentrations in μM
Experimental: as §1, §2

regenerated guar shoots = assay: Root induction from regenerated guar shoots; details: regenerated guar shoots in rooting medium
Description: Root induction from the regenerated shoots. Non-transgenic shoots (two weeks old) from the shoot elongation medium were subjected to two different rooting procedures. Five 10 mm long shoots were harvested from the shoot elongation medium (SEM), the basal region was cut in order to remove any callus or necrotic tissue and the shoot ends were dipped either in a lawn of Agrobacterium rhizogenes (strain ARqua1) and transferred to root induction medium 1 (Farhaeus medium (Dazzo and Hubbell, 1982) solidified with 0.9-1.0% Gelrite) or directly transferred to root induction medium 2 (½ MS salts, Gamborg's B5 vitamins, 2.5% sucrose, 0.5-2.00 mg/l indole 3-butyric acid (IBA), agar 0.8%, pH 5.8) without any Agrobacterium rhizogenes inoculum. To prepare the A. rhizogenes lawn, a single colony was inoculated in 2 ml liquid Farhaeus medium containing 250 mg/l streptomycin in a 10 ml culture tube and cultured for 2-3 days at 28° C. on a rotary shaker. When the O.D. (600 nm) reached 1.0, 50-120 μl of the suspension was spread on a solid Farhaeus plate containing 250 mg/l streptomycin and 0.3% Gelrite. Within 3 days the bacteria formed a lawn on the plate which was subsequently used for infecting the shoot bases. Roots developed within 4 weeks and the rooted plants were transferred to the soil and grown in a growth chamber at 30° C. and 12 hrs of light.
Study of root anatomy. […]

SMILES	Shoot morphogenesis frequency (%) in the genotype Kinman [1]	Shoot morphogenesis frequency (%) in the genotype Lewis [2]	shoots that formed callus at the base (regenerated guar shoots)
c1ccc(CNc2ncnc3nc[nH]c23)cc1 [BAP 4.44, 6-benzylaminopurine]	26.49%	25.89%	–
O=C(O)CCCc1c[nH]c2ccccc12 [IBA, indole 3-butyric acid]	–	–	more than 90%
O=C(Nc1ccccc1)Nc1cnns1 [TDZ 9.10, Thidiazuron]	33.33%	31.67%	–
